What was measured:
[1] = Plasma pharmacokinetics of irinotecan and SN-38 with and without pimasertib; settings: for Ratio of AUC(0–∞) test/reference / Ratio of Cmax test/reference: day 1 with pimasertib / day 15 without pimasertib
[2] = Dose-limiting toxicities and MTD of pimasertib combined with FOLFIRI; assay type: in vivo, human
[3] = Single-dose plasma pharmacokinetics of pimasertib with and without FOLFIRI; assay type: in vivo, human; settings: for Ratio of AUC(0–∞) test/reference / Ratio of Cmax test/reference / CL/f: median; for Ratio of AUC(0–∞) test/reference / Ratio of Cmax test/reference: day 1 with FOLFIRI / day 8 alone
human liver microsomes = settings: in vitro, ref Merck, data on file; cited from earlier work
[4] = Treatment-emergent adverse events, FOLFIRI plus pimasertib; assay type: in vivo, human
[5] = ref Awada et al, 2012, cited from earlier work
KRAS mt mCRC = experiment: Best overall response by RECIST v1.0, FOLFIRI plus pimasertib second-line; assay type: in vivo, human; settings: 45 or 60 mg per day plus FOLFIRI
[6] = following intravenous administration; no reference given; cited from earlier work
[7] = 45 mg per day pimasertib cohort
[8] = median, irinotecan 180 mg m^−2 infusion, day 15, without pimasertib (reference)
[9] = median, irinotecan 180 mg m^−2 infusion, day 1, with pimasertib (test)

## CCc1c2c(nc3ccc(OC(=O)N4CCC(N5CCCCC5)CC4)cc13)-c1cc3c(c(=O)n1C2)COC(=O)[C@]3(O)CC [Irinotecan, irinotecan, reference compound]
[1]; [7]
  reduction of Cmax in the presence of pimasertib: 2.7%
  reduction of exposure (AUC0–∞) in the presence of pimasertib: 8.9%
[1]; human, in vivo, 180 mg m^−2, AUC(0–∞), median, irinotecan 180 mg m^−2 infusion, day 1, with pimasertib (test)
  AUC(0-inf): 10600 ng·h/mL
[1]; human, in vivo, 180 mg m^−2, Cmax, median, irinotecan 180 mg m^−2 infusion, day 15, without pimasertib (reference)
  Cmax: 2120 ng/mL
[1]; human, in vivo, 180 mg m^−2, Tmax, median, irinotecan 180 mg m^−2 infusion, day 1, with pimasertib (test)
  Tmax: 1.5 h
[1]; median
  Ratio of AUC(0–∞) test/reference: 0.911
  Ratio of Cmax test/reference: 0.973
[1]; [8]
  Tmax: 1.54 h

## O=C(NC[C@H](O)CO)c1ccncc1Nc1ccc(I)cc1F [pimasertib, Pimasertib]
[2]; DLT analysis set, 15 patients, both dose levels
  patients who experienced a DLT: three
[2]; first three patients, 45 mg per day
  DLTs: no DLTs
[3]; 45 mg per day cohort
  reduction of exposure (AUC0–∞) in the presence of FOLFIRI: 8.3%
  reduction of maximum plasma concentration (Cmax) in the presence of FOLFIRI: 16.3%
[3]; 45 mg per day
  Ratio of AUC(0–∞) test/reference: 0.917
  Ratio of Cmax test/reference: 0.837
[3]; 60 mg per day
  Ratio of AUC(0–∞) test/reference: 0.825
  Ratio of Cmax test/reference: 0.751
[3]; single 45 mg dose, day 1, with FOLFIRI (test)
  CL/f: 38.7 L/h
[3]; single 45 mg dose, day 8, alone (reference)
  CL/f: 34.2 L/h
[3]; single 60 mg dose, day 1, with FOLFIRI (test)
  CL/f: 42.1 L/h
[3]; single 60 mg dose, day 8, alone (reference)
  CL/f: 44.6 L/h
Human liver microsomes
  effect on 5-FU metabolism: does not alter 5-FU metabolism
[4]; 45 mg per day (n=10), grade 1/2
  Patients with ≥1 pimasertib-related TEAE (by worst grade): 5
[4]; 45 mg per day (n=10), grade 3
  Patients with ≥1 pimasertib-related TEAE (by worst grade): 5
[4]; 45 mg per day (n=10), grade 4
  Patients with ≥1 pimasertib-related TEAE (by worst grade): 0
[4]; 45 mg per day dose
  incidence of grade ≥3 pimasertib-related TEAEs: 50.0%
[4]; 60 mg per day (n=6), grade 1/2
  Patients with ≥1 pimasertib-related TEAE (by worst grade): 2
[4]; 60 mg per day (n=6), grade 3
  Patients with ≥1 pimasertib-related TEAE (by worst grade): 2
[4]; 60 mg per day (n=6), grade 4
  Patients with ≥1 pimasertib-related TEAE (by worst grade): 2
[4]; 60 mg per day dose
  incidence of grade ≥3 pimasertib-related TEAEs: 66.7%
[4]; Overall (n=16), grade 1/2
  Patients with ≥1 pimasertib-related TEAE (by worst grade): 7
[4]; Overall (n=16), grade 3
  Patients with ≥1 pimasertib-related TEAE (by worst grade): 7
[4]; Overall (n=16), grade 4
  Patients with ≥1 pimasertib-related TEAE (by worst grade): 2
[4]; all events except SRD in two patients
  time to resolution of ocular AEs from day of onset: 3 to 139 days
[4]; overall n=16
  Asthenia, pimasertib-related TEAE, patients: 37.5%
  Diarrhoea, pimasertib-related TEAE, patients: 62.5%
  Serous retinal detachment (SRD), pimasertib-related TEAE, patients: 37.5%
  Skin/rash, pimasertib-related TEAE, patients: 50%
  patients with at least one ocular event during trial treatment: 43.8%
  patients with skin/rash events: 56.3%
[5]; administered continuously
  recommended single-agent dose for phase II trials: 60 mg twice-daily
[5]; single-agent phase I dose-escalation trial
  dose-limiting toxicities: skin rash, acneiform dermatitis, ocular events and stomatitis
KRAS mt mCRC
  stable disease maintained for at least 12 weeks, share of the nine SD patients: 66.7%
KRAS mt mCRC; efficacy analysis set n=15
  partial response as best overall response, patients: 13.3%
  progressive disease as best overall response, patients: 20.0%
  stable disease as best overall response, patients: 60.0%

## O=c1[nH]cc(F)c(=O)[nH]1 [5-FU, 5-fluorouracil]
[6]
  mean apparent terminal half-life: ~16 min

## CCc1c2c(nc3ccc(O)cc13)-c1cc3c(c(=O)n1C2)COC(=O)[C@]3(O)CC [SN-38]
[1]; [7]
  increase in Cmax with coadministration of pimasertib: 11%
  reduction of exposure (AUC0–∞) in the presence of pimasertib: 9%
[1]; median
  Ratio of AUC(0–∞) test/reference: 0.91
  Ratio of Cmax test/reference: 1.11
[1]; [9]
  AUC(0–t): 150 ng·h/mL
  AUC(0–∞): 198 ng·h/mL
  Cmax: 20.4 ng/mL
  T1/2: 13.6 h
[1]; [8]
  AUC(0–t): 146 ng·h/mL
  AUC(0–∞): 206 ng·h/mL
  Cmax: 15.1 ng/mL
  T1/2: 15.7 h
  Tmax: 1.6 h
